Data published in patent publication US20140221361A1, “C-19 MODIFIED TRITERPENOIDS WITH HIV MATURATION INHIBITORY ACTIVITY” (priority 2013, published 2014).

system: recombinant NL4-3 virus (Renilla luciferase in nef, Gag P373S); assay: HIV cell culture assay (luciferase reporter, MT-2 cells); assay type: cell-based, HIV-1; details: Renilla, NL43, MT-2 cells infected for 4-5 days with NLRluc recombinants; luciferase activity; serial dilutions of inhibitor
Summary of the method: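 MT-2 cells infected with recombinant NL4-3 carrying Renilla luciferase in place of part of nef and Gag P373S, virus made by 293T transfection. Infection ran 4-5 days with serial inhibitor dilutions. Antiviral activity read as luciferase activity (Dual Luciferase reagents mixed with lysis buffer).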

| SMILES | EC50 [nM] |
| --- | --- |
| C/C=C1\CC[C@]2(NCCN3CCS(=O)(=O)CC3)CC[C@]3(C)[C@H](CC[C@@H]4[C@@]5(C)CC=C(c6ccc(C(=O)O)cc6)C(C)(C)[C@@H]5CC[C@]43C)[C@@H]12 [Example B13, 4-((3aS,5aR,5bR,7aR,11aS,11bR,13aR,13bS)-3a-((2-(1,1-dioxidothiomorpholino)ethyl)amino)-1-ethylidene-5a,5b,8,8,11a-pentamethyl-2,3,3a,4,5,5a,5b,6,7,7a,8,11,11a,11b,12,13,13a,13b-octadecahydro-1H-cyclopenta[a]chrysen-9-yl)benzoic acid] | 10 |
| CC1(C)C(c2ccc(C(=O)O)cc2)=CC[C@]2(C)[C@H]3CC[C@@H]4[C@H]5[C@H](C(=O)O)CC[C@]5(NCCN5CCS(=O)(=O)CC5)CC[C@@]4(C)[C@]3(C)CC[C@@H]12 [Example B17, (1R,3aS,5aR,5bR,7aR,11aS,11bR,13aR,13bS)-9-(4-carboxyphenyl)-3a-((2-(1,1-dioxidothiomorpholino)ethyl)amino)-5a,5b,8,8,11a-pentamethyl-2,3,3a,4,5,5a,5b,6,7,7a,8,11,11a,11b,12,13,13a,13b-octadecahydro-1H-cyclopenta[a]chrysene-1-carboxylic acid] | 2070 |
| CC([C@@H]1CC[C@]2(NCCN3CCS(=O)(=O)CC3)CC[C@]3(C)[C@H](CC[C@@H]4[C@@]5(C)CC=C(c6ccc(C(=O)O)cc6)C(C)(C)[C@@H]5CC[C@]43C)[C@@H]12)N1CCOCC1 (stereo partly drawn) [Example B20, 4-((1R,3aS,5aR,5bR,7aR,11aS,11bR,13aR,13bS)-3a-((2-(1,1-dioxidothiomorpholino)ethyl)amino)-5a,5b,8,8,11a-pentamethyl-1-(1-morpholinoethyl)-2,3,3a,4,5,5a,5b,6,7,7a,8,11,11a,11b,12,13,13a,13b-octadecahydro-1H-cyclopenta[a]chrysen-9-yl)benzoic acid] | 2.05 |
| CC(=O)NC(C)[C@@H]1CC[C@]2(NCCN3CCS(=O)(=O)CC3)CC[C@]3(C)[C@H](CC[C@@H]4[C@@]5(C)CC=C(c6ccc(C(=O)O)cc6)C(C)(C)[C@@H]5CC[C@]43C)[C@@H]12 (stereo partly drawn) [Example B21, 4-((1R,3aS,5aR,5bR,7aR,11aS,11bR,13aR,13bS)-1-(1-acetamidoethyl)-3a-((2-(1,1-dioxidothiomorpholino)ethyl)amino)-5a,5b,8,8,11a-pentamethyl-2,3,3a,4,5,5a,5b,6,7,7a,8,11,11a,11b,12,13,13a,13b-octadecahydro-1H-cyclopenta[a]chrysen-9-yl)benzoic acid] | 8.18 |
| COC(=O)NC(C)[C@@H]1CC[C@]2(NCCN3CCS(=O)(=O)CC3)CC[C@]3(C)[C@H](CC[C@@H]4[C@@]5(C)CC=C(c6ccc(C(=O)O)cc6)C(C)(C)[C@@H]5CC[C@]43C)[C@@H]12 (stereo partly drawn) [Example B22, 4-((1R,3aS,5aR,5bR,7aR,11aS,11bR,13aR,13bS)-3a-((2-(1,1-dioxidothiomorpholino)ethyl)amino)-1-(1-((methoxycarbonyl)amino)ethyl)-5a,5b,8,8,11a-pentamethyl-2,3,3a,4,5,5a,5b,6,7,7a,8,11,11a,11b,12,13,13a,13b-octadecahydro-1H-cyclopenta[a]chrysen-9-yl)benzoic acid] | 1.02 |
| CC(NC(=O)C(F)(F)F)[C@@H]1CC[C@]2(NCCN3CCS(=O)(=O)CC3)CC[C@]3(C)[C@H](CC[C@@H]4[C@@]5(C)CC=C(c6ccc(C(=O)O)cc6)C(C)(C)[C@@H]5CC[C@]43C)[C@@H]12 (stereo partly drawn) [Example B23, 4-((1R,3aS,5aR,5bR,7aR,11aS,11bR,13aR,13bS)-3a-((2-(1,1-dioxidothiomorpholino)ethyl)amino)-5a,5b,8,8,11a-pentamethyl-1-(1-(2,2,2-trifluoroacetamido)ethyl)-2,3,3a,4,5,5a,5b,6,7,7a,8,11,11a,11b,12,13,13a,13b-octadecahydro-1H-cyclopenta[a]chrysen-9-yl)benzoic acid] | 1.16 |
| CC1(C)C(c2ccc(C(=O)O)cc2)=CC[C@]2(C)[C@H]3CC[C@@H]4[C@H]5[C@H](C(=O)COS(=O)O)CC[C@]5(NCCN5CCS(=O)(=O)CC5)CC[C@@]4(C)[C@]3(C)CC[C@@H]12 [Example B24, 4-((1R,3aS,5aR,5bR,7aR,11aS,11bR,13aR,13bS)-3a-((2-(1,1-dioxidothiomorpholino)ethyl)amino)-5a,5b,8,8,11a-pentamethyl-1-(2-(sulfinooxy)acetyl)-2,3,3a,4,5,5a,5b,6,7,7a,8,11,11a,11b,12,13,13a,13b-octadecahydro-1H-cyclopenta[a]chrysen-9-yl)benzoic acid] | 1000 |
| CC1(C)C(c2ccc(C(=O)O)cc2)=CC[C@]2(C)[C@H]3CC[C@@H]4[C@H]5[C@H](C(=O)CO)CC[C@]5(NCCN5CCS(=O)(=O)CC5)CC[C@@]4(C)[C@]3(C)CC[C@@H]12 [Example B25, 4-((1R,3aS,5aR,5bR,7aR,11aS,11bR,13aR,13bS)-3a-((2-(1,1-dioxidothiomorpholino)ethyl)amino)-1-(2-hydroxyacetyl)-5a,5b,8,8,11a-pentamethyl-2,3,3a,4,5,5a,5b,6,7,7a,8,11,11a,11b,12,13,13a,13b-octadecahydro-1H-cyclopenta[a]chrysen-9-yl)benzoic acid] | 110 |
| COC(=O)N[C@@H]1CC[C@]2(NCCN3CCS(=O)(=O)CC3)CC[C@]3(C)[C@H](CC[C@@H]4[C@@]5(C)CC=C(c6ccc(C(=O)O)cc6)C(C)(C)[C@@H]5CC[C@]43C)[C@@H]12 [Example B26, 4-((1R,3aR,5aR,5bR,7aR,11aS,11bR,13aR,13bS)-3a-((2-(1,1-dioxidothiomorpholino)ethyl)amino)-1-((methoxycarbonyl)amino)-5a,5b,8,8,11a-pentamethyl-2,3,3a,4,5,5a,5b,6,7,7a,8,11,11a,11b,12,13,13a,13b-octadecahydro-1H-cyclopenta[a]chrysen-9-yl)benzoic acid] | 2.85 |
| CC1(C)C(c2ccc(C(=O)O)cc2)=CC[C@]2(C)[C@H]3CC[C@@H]4[C@H]5[C@H](C(=O)N6CCOCC6)CC[C@]5(NCCN5CCS(=O)(=O)CC5)CC[C@@]4(C)[C@]3(C)CC[C@@H]12 [Example B27, 4-((1R,3aS,5aR,5bR,7aR,11aS,11bR,13aR,13bS)-3a-((2-(1,1-dioxidothiomorpholino)ethyl)amino)-5a,5b,8,8,11a-pentamethyl-1-(morpholine-4-carbonyl)-2,3,3a,4,5,5a,5b,6,7,7a,8,11,11a,11b,12,13,13a,13b-octadecahydro-1H-cyclopenta[a]chrysen-9-yl)benzoic acid] | 8.11 |
| CNC(=O)[C@@H]1CC[C@]2(NCCN3CCS(=O)(=O)CC3)CC[C@]3(C)[C@H](CC[C@@H]4[C@@]5(C)CC=C(c6ccc(C(=O)O)cc6)C(C)(C)[C@@H]5CC[C@]43C)[C@@H]12 [Example B28, 4-((1R,3aS,5aR,5bR,7aR,11aS,11bR,13aR,13bS)-3a-((2-(1,1-dioxidothiomorpholino)ethyl)amino)-5a,5b,8,8,11a-pentamethyl-1-(methylcarbamoyl)-2,3,3a,4,5,5a,5b,6,7,7a,8,11,11a,11b,12,13,13a,13b-octadecahydro-1H-cyclopenta[a]chrysen-9-yl)benzoic acid] | 110 |
| CNC(=O)N[C@@H]1CC[C@]2(NCCN3CCS(=O)(=O)CC3)CC[C@]3(C)[C@H](CC[C@@H]4[C@@]5(C)CC=C(c6ccc(C(=O)O)cc6)C(C)(C)[C@@H]5CC[C@]43C)[C@@H]12 [Example B29, 4-((1R,3aR,5aR,5bR,7aR,11aS,11bR,13aR,13bS)-3a-((2-(1,1-dioxidothiomorpholino)ethyl)amino)-5a,5b,8,8,11a-pentamethyl-1-(3-methylureido)-2,3,3a,4,5,5a,5b,6,7,7a,8,11,11a,11b,12,13,13a,13b-octadecahydro-1H-cyclopenta[a]chrysen-9-yl)benzoic acid] | 30 |
| CC1(C)C(c2ccc(C(=O)O)cc2)=CC[C@]2(C)[C@H]3CC[C@@H]4[C@H]5[C@H](NC(=O)N6CCCC6)CC[C@]5(NCCN5CCS(=O)(=O)CC5)CC[C@@]4(C)[C@]3(C)CC[C@@H]12 [Example B30, 4-((1R,3aR,5aR,5bR,7aR,11aS,11bR,13aR,13bS)-3a-((2-(1,1-dioxidothiomorpholino)ethyl)amino)-5a,5b,8,8,11a-pentamethyl-1-(pyrrolidine-1-carboxamido)-2,3,3a,4,5,5a,5b,6,7,7a,8,11,11a,11b,12,13,13a,13b-octadecahydro-1H-cyclopenta[a]chrysen-9-yl)benzoic acid] | 2.96 |
| CC1(C)C(c2ccc(C(=O)O)cc2)=CC[C@]2(C)[C@H]3CC[C@@H]4[C@H]5[C@H](c6nnco6)CC[C@]5(NCCN5CCS(=O)(=O)CC5)CC[C@@]4(C)[C@]3(C)CC[C@@H]12 [Example B31, 4-((1R,3aS,5aR,5bR,7aR,11aS,11bR,13aR,13bS)-3a-((2-(1,1-dioxidothiomorpholino)ethyl)amino)-5a,5b,8,8,11a-pentamethyl-1-(1,3,4-oxadiazol-2-yl)-2,3,3a,4,5,5a,5b,6,7,7a,8,11,11a,11b,12,13,13a,13b-octadecahydro-1H-cyclopenta[a]chrysen-9-yl)benzoic acid] | 30 |
| CC([C@@H]1CC[C@]2(NCCN3CCS(=O)(=O)CC3)CC[C@]3(C)[C@H](CC[C@@H]4[C@@]5(C)CC=C(c6ccc(C(=O)O)cc6)C(C)(C)[C@@H]5CC[C@]43C)[C@@H]12)N1CCCC1=O (stereo partly drawn) [Example B32, 4-((1R,3aS,5aR,5bR,7aR,11aS,11bR,13aR,13bS)-3a-((2-(1,1-dioxidothiomorpholino)ethyl)amino)-5a,5b,8,8,11a-pentamethyl-1-(1-(2-oxopyrrolidin-1-yl)ethyl)-2,3,3a,4,5,5a,5b,6,7,7a,8,11,11a,11b,12,13,13a,13b-octadecahydro-1H-cyclopenta[a]chrysen-9-yl)benzoic acid] | 2.84 |
